PubChem BioAssay AID1963971 (Molecular Pharmacology Branch, DTP, NCI, 2024)

Test system: 953936-095-R-J2-PDC spheroids with HUVEC/MSC, viability
Experiment: Anticancer human tumor 953936-095-R-J2-PDC patient-derived cervical squamous cell carcinoma cell line growth inhibition [PI3K]
Settings: for IC50: curve of first compound; for viability, T/C: stronger effect = lower value
In short: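 Stroma-containing spheroids: tumor line, pooled-donor HUVEC, hMSC. Treatments: targeted agents with PI3K inhibitors. Dosing: clinically relevant, half-log spacing, 10 microM ceiling without known Cmax. Read-out: cell viability.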

[1] = second compound 0.0316 µM, first compound 0.0316 µM
[2] = second compound 0.0316 µM, first compound 0.1 µM
[3] = second compound 0.0316 µM, first compound 0.316 µM
[4] = second compound 0.0316 µM, first compound 1 µM
[5] = second compound 0.0316 µM, first compound 3.16 µM
[6] = second compound 0.0316 µM, first compound 10 µM
[7] = second compound 0.1 µM, first compound 0.0316 µM
[8] = second compound 0.1 µM, first compound 0.1 µM
[9] = second compound 0.1 µM, first compound 0.316 µM
[10] = second compound 0.1 µM, first compound 1 µM
[11] = second compound 0.1 µM, first compound 3.16 µM
[12] = second compound 0.1 µM, first compound 10 µM
[13] = second compound 0.316 µM, first compound 0.0316 µM
[14] = second compound 0.316 µM, first compound 0.1 µM
[15] = second compound 0.316 µM, first compound 0.316 µM
[16] = second compound 0.316 µM, first compound 1 µM
[17] = second compound 0.316 µM, first compound 3.16 µM
[18] = second compound 0.316 µM, first compound 10 µM
[19] = second compound 1 µM, first compound 0.0316 µM
[20] = second compound 1 µM, first compound 0.1 µM
[21] = second compound 1 µM, first compound 0.316 µM
[22] = second compound 1 µM, first compound 1 µM
[23] = second compound 1 µM, first compound 3.16 µM
[24] = second compound 1 µM, first compound 10 µM
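Note: spheroids exposed to compounds for seven days before read-out.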

Question: Which IC50 (second compound 0.00316 µM) does the source give for `CC1(C)CCC(Nc2ncc(C(F)(F)F)c(-c3c[nH]c4c(P(C)(C)=O)c(C#N)ccc34)n2)CN1` (stereo unspecified) + CC(Nc1ccc2c(c1)OCCn1cc(N3C(=O)OCC3C(F)F)nc1-2)C(N)=O here?
Answer: < 31.6 nM

Question: What about the IC50 (second compound 0.01 µM) of the same compound?
Answer: < 31.6 nM

Question: What about the IC50 (second compound 0.0316 µM) of the same compound?
Answer: < 31.6 nM

Question: And the IC50 (second compound 0.1 µM)?
Answer: < 31.6 nM

Question: What about the IC50 (second compound 0.316 µM) of the same compound?
Answer: < 31.6 nM

Question: What about the IC50 (second compound 1 µM) of the same compound?
Answer: < 31.6 nM

Question: And the viability, T/C (second compound 0.00316 µM, first compound 0.0316 µM)?
Answer: 48.3%

Question: What about the viability, T/C (second compound 0.00316 µM, first compound 0.1 µM) of the same compound?
Answer: 44.8%

Question: And the viability, T/C (second compound 0.00316 µM, first compound 0.316 µM)?
Answer: 49.2%

Question: What about the viability, T/C (second compound 0.00316 µM, first compound 1 µM) of the same compound?
Answer: 58.6%

Question: What about the viability, T/C (second compound 0.00316 µM, first compound 3.16 µM) of the same compound?
Answer: 45.3%

Question: And the viability, T/C (second compound 0.00316 µM, first compound 10 µM)?
Answer: 5.82%

Question: And the viability, T/C (second compound 0.01 µM, first compound 0.0316 µM)?
Answer: 49.9%

Question: And the viability, T/C (second compound 0.01 µM, first compound 0.1 µM)?
Answer: 45%

Question: What about the viability, T/C (second compound 0.01 µM, first compound 0.316 µM) of the same compound?
Answer: 42.8%

Question: What about the viability, T/C (second compound 0.01 µM, first compound 1 µM) of the same compound?
Answer: 51.6%

Question: And the viability, T/C (second compound 0.01 µM, first compound 3.16 µM)?
Answer: 50.3%

Question: And the viability, T/C (second compound 0.01 µM, first compound 10 µM)?
Answer: 5.56%

Question: What about the viability, T/C [1] of the same compound?
Answer: 45.9%

Question: And the viability, T/C [2]?
Answer: 42.4%

Question: And the viability, T/C [3]?
Answer: 39.2%

Question: And the viability, T/C [4]?
Answer: 40.8%

Question: And the viability, T/C [5]?
Answer: 44.9%

Question: What about the viability, T/C [6] of the same compound?
Answer: 4.63%

Question: What about the viability, T/C [7] of the same compound?
Answer: 38.5%

Question: What about the viability, T/C [8] of the same compound?
Answer: 32.2%

Question: And the viability, T/C [9]?
Answer: 35.2%

Question: And the viability, T/C [10]?
Answer: 32.7%

Question: And the viability, T/C [11]?
Answer: 41.1%

Question: And the viability, T/C [12]?
Answer: 3.61%

Question: What about the viability, T/C [13] of the same compound?
Answer: 21.5%

Question: And the viability, T/C [14]?
Answer: 22.4%

Question: And the viability, T/C [15]?
Answer: 22.4%

Question: What about the viability, T/C [16] of the same compound?
Answer: 22.4%

Question: And the viability, T/C [17]?
Answer: 19.8%

Question: And the viability, T/C [18]?
Answer: 1.3%

Question: What about the viability, T/C [19] of the same compound?
Answer: 16.5%

Question: And the viability, T/C [20]?
Answer: 16.3%

Question: And the viability, T/C [21]?
Answer: 17.7%

Question: What about the viability, T/C [22] of the same compound?
Answer: 16.6%

Question: And the viability, T/C [23]?
Answer: 15.7%

Question: What about the viability, T/C [24] of the same compound?
Answer: 0.88%

Question: Which results are given for `CNC(=O)c1ccc(N2C(=S)N(c3ccc(C#N)c(C(F)(F)F)c3)C(=O)C2(C)C)cc1F` + CC(Nc1ncnc2nc[nH]c12)c1cc2cccc(Cl)c2c(=O)n1-c1ccccc1?
Answer: IC50 (second compound 0.0316 µM): > 10000 nM; IC50 (second compound 0.1 µM): > 10000 nM; IC50 (second compound 0.316 µM): > 10000 nM; IC50 (second compound 1 µM): > 10000 nM; IC50 (second compound 3.16 µM): > 10000 nM; IC50 (second compound 10 µM): > 10000 nM; viability, T/C [1]: 97.9%; viability, T/C [2]: 108%; viability, T/C [3]: 100%; viability, T/C [4]: 91.9%; viability, T/C [5]: 103%; viability, T/C [6]: 85.7%; viability, T/C [7]: 94.2%; viability, T/C [8]: 104%; viability, T/C [9]: 108%; viability, T/C [10]: 93%; viability, T/C [11]: 83.2%; viability, T/C [12]: 74.2%; viability, T/C [13]: 111%; viability, T/C [14]: 88.6%; viability, T/C [15]: 92.4%; viability, T/C [16]: 96.3%; viability, T/C [17]: 95.2%; viability, T/C [18]: 70.9%; viability, T/C [19]: 94.3%; viability, T/C [20]: 95.4%; viability, T/C [21]: 83.8%; viability, T/C [22]: 88.9%; viability, T/C [23]: 84.7%; viability, T/C [24]: 78%; viability, T/C (second compound 3.16 µM, first compound 0.0316 µM): 76.6%; viability, T/C (second compound 3.16 µM, first compound 0.1 µM): 83.1%; viability, T/C (second compound 3.16 µM, first compound 0.316 µM): 71.8%; viability, T/C (second compound 3.16 µM, first compound 1 µM): 82.9%; viability, T/C (second compound 3.16 µM, first compound 3.16 µM): 82.1%; viability, T/C (second compound 3.16 µM, first compound 10 µM): 61.2%; viability, T/C (second compound 10 µM, first compound 0.0316 µM): 62.6%; viability, T/C (second compound 10 µM, first compound 0.1 µM): 67.6%; viability, T/C (second compound 10 µM, first compound 0.316 µM): 66.6%; viability, T/C (second compound 10 µM, first compound 1 µM): 58.7%; viability, T/C (second compound 10 µM, first compound 3.16 µM): 58.5%; viability, T/C (second compound 10 µM, first compound 10 µM): 55%

Question: For `Cn1cnc2c(F)c(Nc3ccc(Br)cc3Cl)c(C(=O)NOCCO)cc21` + CC(Nc1ncnc2nc[nH]c12)c1cc2cccc(Cl)c2c(=O)n1-c1ccccc1, which IC50 (second compound 0.0316 µM) is on record?
Answer: 2090 nM

Question: What about the IC50 (second compound 0.1 µM) of the same compound?
Answer: 956 nM

Question: What about the IC50 (second compound 0.316 µM) of the same compound?
Answer: 1160 nM

Question: What about the IC50 (second compound 1 µM) of the same compound?
Answer: 732 nM

Question: And the IC50 (second compound 3.16 µM)?
Answer: 366 nM

Question: What about the IC50 (second compound 10 µM) of the same compound?
Answer: < 9.49 nM

Question: What about the viability, T/C (second compound 0.0316 µM, first compound 0.00949 µM) of the same compound?
Answer: 79.1%

Question: And the viability, T/C (second compound 0.0316 µM, first compound 0.03 µM)?
Answer: 78.9%

Question: What about the viability, T/C (second compound 0.0316 µM, first compound 0.0949 µM) of the same compound?
Answer: 69.7%

Question: What about the viability, T/C (second compound 0.0316 µM, first compound 0.3 µM) of the same compound?
Answer: 67.6%

Question: And the viability, T/C (second compound 0.0316 µM, first compound 0.949 µM)?
Answer: 57%

Question: What about the viability, T/C (second compound 0.0316 µM, first compound 3 µM) of the same compound?
Answer: 46.6%

Question: What about the viability, T/C (second compound 0.1 µM, first compound 0.00949 µM) of the same compound?
Answer: 90.2%

Question: What about the viability, T/C (second compound 0.1 µM, first compound 0.03 µM) of the same compound?
Answer: 86.3%

Question: What about the viability, T/C (second compound 0.1 µM, first compound 0.0949 µM) of the same compound?
Answer: 77.7%

Question: And the viability, T/C (second compound 0.1 µM, first compound 0.3 µM)?
Answer: 57.6%

Question: What about the viability, T/C (second compound 0.1 µM, first compound 0.949 µM) of the same compound?
Answer: 54.7%

Question: What about the viability, T/C (second compound 0.1 µM, first compound 3 µM) of the same compound?
Answer: 39.5%

Question: And the viability, T/C (second compound 0.316 µM, first compound 0.00949 µM)?
Answer: 90.2%

Question: What about the viability, T/C (second compound 0.316 µM, first compound 0.03 µM) of the same compound?
Answer: 68.8%

Question: And the viability, T/C (second compound 0.316 µM, first compound 0.0949 µM)?
Answer: 74.2%

Question: And the viability, T/C (second compound 0.316 µM, first compound 0.3 µM)?
Answer: 68.2%

Question: What about the viability, T/C (second compound 0.316 µM, first compound 0.949 µM) of the same compound?
Answer: 53.1%

Question: What about the viability, T/C (second compound 0.316 µM, first compound 3 µM) of the same compound?
Answer: 36%

Question: What about the viability, T/C (second compound 1 µM, first compound 0.00949 µM) of the same compound?
Answer: 85.5%

Question: What about the viability, T/C (second compound 1 µM, first compound 0.03 µM) of the same compound?
Answer: 77.3%

Question: What about the viability, T/C (second compound 1 µM, first compound 0.0949 µM) of the same compound?
Answer: 65%

Question: What about the viability, T/C (second compound 1 µM, first compound 0.3 µM) of the same compound?
Answer: 58.8%

Question: And the viability, T/C (second compound 1 µM, first compound 0.949 µM)?
Answer: 48.1%

Question: And the viability, T/C (second compound 1 µM, first compound 3 µM)?
Answer: 38.6%

Question: And the viability, T/C (second compound 3.16 µM, first compound 0.00949 µM)?
Answer: 76.4%

Question: What about the viability, T/C (second compound 3.16 µM, first compound 0.03 µM) of the same compound?
Answer: 60.5%

Question: And the viability, T/C (second compound 3.16 µM, first compound 0.0949 µM)?
Answer: 60.4%

Question: And the viability, T/C (second compound 3.16 µM, first compound 0.3 µM)?
Answer: 54%

Question: What about the viability, T/C (second compound 3.16 µM, first compound 0.949 µM) of the same compound?
Answer: 42.5%

Question: And the viability, T/C (second compound 3.16 µM, first compound 3 µM)?
Answer: 33.4%

Question: And the viability, T/C (second compound 10 µM, first compound 0.00949 µM)?
Answer: 47.5%

Question: What about the viability, T/C (second compound 10 µM, first compound 0.03 µM) of the same compound?
Answer: 44.4%

Question: What about the viability, T/C (second compound 10 µM, first compound 0.0949 µM) of the same compound?
Answer: 38.8%

Question: What about the viability, T/C (second compound 10 µM, first compound 0.3 µM) of the same compound?
Answer: 30.5%

Question: What about the viability, T/C (second compound 10 µM, first compound 0.949 µM) of the same compound?
Answer: 19.5%

Question: And the viability, T/C (second compound 10 µM, first compound 3 µM)?
Answer: 14.8%
